Results on two compounds are retold here after patent US20120114588A1, “IBAT INHIBITORS FOR TREATMENT OF METABOLIC DISORDERS AND RELATED CONDITIONS” (ALBIREO AB, priority 2010, published 2012).

Series [1] addresses T1, Ileal Bile Acid Transporter Human (Homo sapiens, UniProt Q12908).
T1 construct: expressed in transfected cells; host or cells: HEK
T1 sequence (Q12908 1-348): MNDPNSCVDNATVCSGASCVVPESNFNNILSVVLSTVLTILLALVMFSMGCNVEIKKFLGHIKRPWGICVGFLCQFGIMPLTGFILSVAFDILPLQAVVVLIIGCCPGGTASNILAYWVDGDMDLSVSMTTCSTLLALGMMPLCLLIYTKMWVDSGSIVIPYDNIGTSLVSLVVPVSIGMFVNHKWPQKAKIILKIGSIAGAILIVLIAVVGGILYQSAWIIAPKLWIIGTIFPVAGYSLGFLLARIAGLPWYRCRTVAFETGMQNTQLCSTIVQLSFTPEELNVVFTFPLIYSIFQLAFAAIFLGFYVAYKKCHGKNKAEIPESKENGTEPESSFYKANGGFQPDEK
As to the kind of experiment: ISBT Hu HEK Uptake SPA: Human HEK Glycocholic acid Uptake Radiometric SPA. The class given is cell-based. To be noted: human IBAT in HEK cells. The method, then: ISBT Hu HEK Uptake SPA 13203 IBAT HUM Ileal Bile Acid Transporter Human HEK Glycocholic acid Uptake Radiometric—SPA Inhibitor IC50 Mean IC50 (nM) was determined for the compounds of examples 1-14

Another series has as its target T2, IBAT (Mus musculus, UniProt P70172).
T2 construct: from tissue; host or cells: living ApoE knock-out C57BL/6 mice (intestine, in vivo)
T2 sequence (P70172 1-348): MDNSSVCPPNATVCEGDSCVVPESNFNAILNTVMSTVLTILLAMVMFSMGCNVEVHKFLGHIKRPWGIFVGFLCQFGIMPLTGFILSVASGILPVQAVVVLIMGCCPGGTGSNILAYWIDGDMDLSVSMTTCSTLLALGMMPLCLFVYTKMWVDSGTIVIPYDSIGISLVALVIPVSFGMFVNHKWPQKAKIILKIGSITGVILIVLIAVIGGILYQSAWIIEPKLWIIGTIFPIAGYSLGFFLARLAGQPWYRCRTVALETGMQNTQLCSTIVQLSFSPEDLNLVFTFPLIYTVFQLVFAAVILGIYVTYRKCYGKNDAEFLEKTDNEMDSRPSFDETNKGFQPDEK
Nature of the series: 75SeHCAT intestinal absorption (faecal excretion / body retention) in ApoE knock out mice. The class given is in vivo. To be noted: single oral dose 0.156 μmol/kg, 75SeHCAT given 30 min later, 24 h collection, read-out: % inhibition 0.156 μmol/kg (mean IBAT inhibitory effect). The method, then:
Species Mouse; Strain ApoE knock out; Substrain C57BL/6; Sex Female; Total No. of animals 70; Body weight range 20 g to 22 g; Supplier Mollegaard's Breeding (Skensved, Denmark); Identification method ID cards (bar code).
Acclimatisation At least one week at the Section of Laboratory; Animal Resource at AstraZeneca; Housing conditions Kept five by five in cages (Makrolon III, 7 dm2) in a room with regulated temperature ([…]), relative humidity (40% to 60%) and a 12/12 hours light/dark cycle. Diet Free access to R3 pellets (Lactamin, Vadstena, Sweden) during the housing and experimental period. Water Free access to tap water during the housing and experimental period.
Volume(s) of administration 0.1 mL per mousen […]
The animals were orally administered vehicle or Example 14 (0.156 , 0.625 or 2.5 pmol/kg) at 13:00 o'clock on the experimental day. […] The gamma radioactivities of 75SeHCAT in the faeces and in the gall bladder-intestine were separately counted by 1282 CompuGamma CS Gamma counter (Wallac oy, Turku, Finland). The stability as well as the quantity of the 75SeHCAT administered to each mouse, were controlled with an additional 75SeHCAT aliquot following the same experimental process as other tested samples in the study. […]
The mean IBAT inhibitory effect (%) at a dose (pmol/kg): 0.156 was determined for the compounds of examples 1-14 and is reported in Table 1.

A short description of series [2]: Phase IIb placebo-controlled study in patients with Chronic Idiopathic Constipation: plasma glucose. The class given is in vivo, human (patients). To be noted: for Glucose concentration, Baseline, Mean ± SD: 10 mg group. An excerpt:
In a Phase Ilb, Double-blind, Randomised, Placebo-controlled, Multi-centre, Dose-finding,
Efficacy and Safety of a Range of Doses of the substance according to Example 14 in Patients with Chronic Idiopathic Constipation in addition also have glucose values above Upper limit of normal (ULN), treated for 56 days. The patient was a male or non-pregnant female 20 years of age and 80 years of age with body mass index (BMI) 18.5 but <35.
p-values were obtained from an analysis of covariance with treatment group, demographic group and treatment-by-demographic group as fixed factors and baseline value as a covariate in the model. No adjustment for multiple comparisons was made.

The target of another series is T3, Slc10a2 protein (Mus musculus, UniProt P70172).
T3 construct: from tissue; host or cells: living male ob/ob mice (Taconic), ileum in vivo
T3 sequence (P70172 1-348): T2 sequence (P70172 1-348)
As to the kind of experiment: ob/ob mice gavaged with Slc10a2 inhibitor for 11 days: plasma, liver and distal ileum analyses. The class given is in vivo. An excerpt:
A diet enriched in sucrose (D12329, Research Diets, NJ) together with drinking water supplemented with 10% fructose was used for the high carbohydrate experiment. Animals had free access to the diet for two weeks. Control animals received standard mouse chow and tap water. Male ob/ob animals were from Taconic, DK. Ob/ob animals were gavaged with a specific Slc10a2 inhibitor Example 14 or a control vehicle for 11 days. Animals had free access to food and water. All animal care and experiments were conducted in accordance with accepted standards of humane animal care and approved by the Ethics Committee of Goteborg University.
Blood was centrifuged, and plasma was analyzed for total cholesterol and TGs using the IL TestTM cholesterol 181618-10 and TG 181610-60 kits on the Monarch 2000 system (IL Scandinavia, Gothenburg, Sweden). Lipoprotein cholesterol profiles were obtained by separation of […] of plasma using a micro fast protein liquid chromatography (FPLC) system for the generation of lipoprotein profiles (15). Plasma insulin levels were analyzed using a rodent insulin RIA kit (Linco, St. Charles, Mich.). Total plasma glucose was analyzed using the IL Test (IL Scandinavia, Gothenburg, Sweden) on the Monark 2000 system. Blood glucose was determined using a Bayer Elite glucometer (Bayer diagnostics, Germany). Plasma free fatty acids were analyzed employing a commercial 3 NEFA kit (Wako Chemicals
Total RNA was extracted from frozen livers or distal ileum with TRIzol reagent (Invitrogen, Carlsbad, Calif.). The RNA was DNase-treated with RQ1 Dnase (Promega, Madison, Wis.). cDNA synthesis and quantitative real time PCR was performed employing HPRT as endogenous control (18). Primer and probe information are available upon request.
A ligand blot employing ^125I-labeled rabbit β-VLDL was used to detect LDL receptors in liver as described (19). Hepatic SR-BI was assayed by immunoblot using a rodent specific rabbit polyclonal antibody (Novus Biologicals Inc., Littleton, Colo.), as described (20). Cyp7a1 protein levels were assayed in liver microsomal protein samples by immunoblot using a rabbit polyclonal antibody directed against the C-terminus of the CYP7A1 (18). To detect SREBP1 protein, cytoplasmic and nuclear protein preparations from liver were performed using the NE—PER reagent (Pierce), including Complete protease inhibitor (Roche), 1 mM phenyl-methylsulfonyl fluoride, 0.5 mM leupeptin, 5 μg/ml Calpain inhibitor I (Biomol, Pa.), following the manufacturer's instructions. 50 μg and 25 μg of cytoplasmic and nuclear liver protein fractions, respectively, were electrophoresed on NuPage Bis-Tris gels (Invitrogen) and transferred to nitrocellulose membranes. Membranes were blocked in 5% skimmed milk powder and incubated with a mouse monoclonal antibody raised against the N′-terminus of SREBP1 (Labvision Corporation, Calif.) at 1.5 μg/mL in 5% skimmed milk powder for two hours at room temperature. An HRP conjugated goat anti-mouse F(ab)2 antibody (Pierce) was used for detection of specific signals together with Supersignal reagent (Pierce) and a Fuji BAS 1800 analyzer (Fuji Photo Film Co.). To analyze phosphorylated liver proteins by western blot, total liver protein homogenates were prepared from frozen tissue by homogenization using a polytron followed by sonication in a buffer containing 20 mM Tris-Hcl, pH 7,4, 1% Triton X-100, 10% Glycerol, 150 mM NaCl, 2 mM EDTA, 25 mM betaglycerophosphate, 20 mM sodium floride, 1 mM sodium orthovanadate, 2 mM sodium pyrophosphate, 1 mM benzamidine, 1 mM phenyl-methylsulfonyl fluoride, 0.5 mM leupeptin, Complete proteinase inhibitor (Roche), and then centrifuged at 14 000 rpm in a microcentrifuge, and the supernatant was recovered. 50 μg protein was loaded on NuPage Bis-Tris gels (Invitrogen) and transferred to nitrocellulose membranes. […]

[3] abbreviates: western blot with phosphospecific antibodies.

On to `CCCCC1(CCCC)CN(c2ccccc2)c2cc(SC)c(OCC(=O)N[C@@H](C(=O)N[C@@H](CC)C(=O)O)c3ccc(O)cc3)cc2S(=O)(=O)C1` [Example 11, 1,1-Dioxo-3,3-dibutyl-5-phenyl-7-methylthio-8-(N-{(R)-α-[N′-((S)-1-carboxypropyl)carbamoyl]-4-hydroxybenzyl}carbamoylmethoxy) -2,3,4,5-tetrahydro-1,5-benzothiazepine], for which it took 0.15 nM to reach half-maximal inhibition in series [1] (IC50). On IBAT, the inhibition at 0.156 µmol/kg came to 63%.

As to `CCCCC1(CCCC)CN(c2ccccc2)c2cc(SC)c(OCC(=O)N[C@@H](C(=O)NCC(=O)O)c3ccccc3)cc2S(=O)(=O)C1` [Example 14, 1,1-Dioxo-3,3-dibutyl-5-phenyl-7-methylthio-8-(N-{ (R)-1′-phenyl-1′-[N′-(carboxymethyl)carbamoyl]methyl}carbamoylmethoxy)-2,3,4,5-tetrahydro-1,5-benzothiazepine], the “Glucose concentration, Baseline, Mean ± SD” value in series [2] (patients with glucose >ULN, n=4, before treatment) worked out at 129.8 ± 7.4 mg/dL. Moreover, the “Glucose concentration, End of Treatment, Mean ± SD” value in series [2] (patients with glucose >ULN, 10 mg, 56 days, n=4) turned out to be 82 ± 10.23 mg/dL. Also, the “Glucose concentration % change baseline to end of treatment” value in series [2] (patients with glucose >ULN, 10 mg, 56 days, p 0.013 vs placebo) was −36.9%. Also, the “Reduction of glucose concentration, baseline vs end of treatment” value in series [2] (patients with glucose higher than ULN, 10 mg, 56 days) is 36%. The “Change of glucose concentration, baseline vs end of treatment” value in series [2] (patients with glucose lower or equal to ULN) is “did not show any significant change”. For the same compound, the “Glucose concentration, Baseline, Mean ± SD” value in series [2] (patients with glucose ≦ULN, n=25, before treatment) stood at 91.3 ± 7.52 mg/dL. In addition, the “Glucose concentration, End of Treatment, Mean ± SD” value in series [2] (patients with glucose ≦ULN, 10 mg, 56 days, n=25) is 90.6 ± 12.96 mg/dL. In addition, the “Glucose concentration % change baseline to end of treatment” value in series [2] (patients with glucose ≦ULN, 10 mg, 56 days, p 0.653 vs placebo) is recorded as −1%. Moreover, the IC50 (as a rule, the point on the concentration scale where inhibition reaches its midpoint) in series [1] was 1.2 nM. Besides, the “Total plasma TG levels reduced” value at Slc10a2 protein (11 days treatment) was 73%. Also, the “Fasting levels of glucose reduced vs vehicle” value on Slc10a2 protein (11 days treatment, blood glucose) is 30%. In addition, at Slc10a2 protein (11 days treatment, plasma), the “Fasting insulin levels reduced” value is 50%. Besides, the “Total plasma cholesterol increased” value on Slc10a2 protein (11 days treatment, tendency) is listed as 16%. On Slc10a2 protein (11 days, distal ileum), the “FGF15 mRNA level” value was “significantly reduced”, the FXR gene expression entry was “unaltered”, the “IBABP mRNA level” value is “significantly reduced” and the “SHP mRNA level” value was “significantly reduced”. In addition, at Slc10a2 protein (11 days, liver), the “Hepatic G6Pase expression” value is reported as “reduced”, the “Hepatic GK mRNA level” value is listed as “increased”, the “Hepatic LPK mRNA reduced” value amounted to 30% and the “Hepatic PEPCK expression” value is “reduced”. In addition, the “Hepatic SREBP1c mRNA levels” value on Slc10a2 protein (11 days, liver) is recorded as “markedly reduced”. In addition, the “Hepatic cholesterol and TG content” value at Slc10a2 protein (11 days, liver, vs control) was “no difference”. Further, at Slc10a2 protein (11 days, liver, vs vehicle), the “Hepatic ACC mRNA level decreased” value is reported as 50%, the “Hepatic FAS mRNA level decreased” value is recorded as 80%, the “Hepatic SCD1 mRNA level” value is listed as “not significantly altered” and the “Hepatic mRNA expression of FGF21” value is on record as “doubled”. The “Hepatic mRNA level of CYP7A1” value on Slc10a2 protein (11 days, liver, vs vehicle) was “increased”. In addition, at Slc10a2 protein (setting [3]), the “Akt serine 473 phosphorylation in liver lysates” value was “reduced” and the “Mek1/2-Erk1/2 pathway activation in liver” value is reported as “reduced activation”.
